Data on twelve molecules can be found in ChEMBL document CHEMBL1135359, “Antifungal sordarins. Synthesis and structure-activity relationships of 3',4'-fused dioxolane and dioxane derivatives” (2002).

In brackets after ≈: the same amount, converted by molar mass.

What all share (assay type): functional
Experiment [1] concerns Candida albicans. As to the kind of experiment: In vitro antifungal activity for Candida albicans 4711E.
In experiment [2] the test system is Nakaseomyces glabratus. In words: In vitro antifungal activity for Candida glabrata 2375E.
Experiment [3] concerns Cryptococcus neoformans. As to the kind of experiment: In vitro antifungal activity for Cryptococcus neoformans 2867E.
Experiment [4] concerns Candida tropicalis. In words: In vitro antifungal activity for Candida tropicalis 2808E.
Experiment [5] has as its system Candida albicans. As to the kind of experiment: In vitro antifungal activity for Candida albicans 2005E.
For experiment [6], the system named is Kluyveromyces marxianus. In words: In vitro antifungal activity for Candida pseudotropicalis 2371E.
For experiment [7], the system named is Candida albicans. In words: In vitro antifungal activity for Candida albicans 2402E.

Usually MIC stands for the smallest concentration in the dilution series that meets the test's criterion for growth inhibition. A higher MIC goes with weaker potency. `CC1O[C@H]2[C@H](C[C@H](OCC34C[C@@H]5[C@H](C)CC[C@H]5C5(C=O)CC3C=C(C(C)C)C45C(=O)O)O[C@@H]2C)O1` (stereo partly specified): the minimal inhibitory concentration (MIC) in experiment [1] is under 0.001 µg/mL; in experiment [2] it was 8 µg/mL (≈ 16.4 µM); in experiment [3] it was 31 µg/mL (≈ 63.4 µM); in experiment [4], 0.03 µg/mL (≈ 0.0614 µM); in experiment [5] it was under 0.001 µg/mL; in experiment [6], 0.004 µg/mL (≈ 0.00819 µM).

As to `CC(C)C1=CC2CC3(C=O)[C@@H]4CC[C@@H](C)[C@H]4CC2(CO[C@@H]2C[C@@H]4OC(C)(C)O[C@@H]4[C@@H](C)O2)C13C(=O)O` (stereo partly specified), the minimum inhibitory concentration (MIC) in experiment [1] was 4 µg/mL (≈ 7.96 µM); in experiment [2], over 125 µg/mL; in experiment [3], over 125 µg/mL; in experiment [4], 16 µg/mL (≈ 31.8 µM); in experiment [5], 2 µg/mL (≈ 3.98 µM); in experiment [6], 4 µg/mL (≈ 7.96 µM).

With `CC(C)C1=CC2CC3(C=O)[C@@H]4CC[C@@H](C)[C@H]4CC2(CO[C@@H]2O[C@H](C)[C@H]4OC(C)(C)OC4[C@H]2O)C13C(=O)O` (single isomer, unassigned), the MIC in experiment [1] was 8 µg/mL (≈ 15.4 µM); in experiment [2], over 125 µg/mL; in experiment [7] it was 8 µg/mL (≈ 15.4 µM); in experiment [3], over 125 µg/mL; in experiment [4], 31 µg/mL (≈ 59.8 µM); in experiment [5], 2 µg/mL (≈ 3.86 µM). The molecule also displayed an MIC in experiment [6] of 2 µg/mL (≈ 3.86 µM).

Consider `CC(C)C1=CC2CC3(C=O)[C@@H]4CC[C@@H](C)[C@H]4CC2(CO[C@@H]2O[C@H](C)[C@H]4OC(=S)OC4[C@@H]2O)C13C(=O)O` (single isomer, unassigned), for which the minimum inhibitory concentration (MIC) in experiment [1] is 62 µg/mL (≈ 119 µM); in experiment [2], 125 µg/mL (≈ 240 µM); in experiment [7] it was 62 µg/mL (≈ 119 µM); in experiment [3], 16 µg/mL (≈ 30.7 µM); in experiment [4], over 125 µg/mL; in experiment [5], 31 µg/mL (≈ 59.5 µM). This molecule also gave an MIC in experiment [6] of 31 µg/mL (≈ 59.5 µM).

As to `CC1OC2[C@H](O)[C@H](OCC34C[C@@H]5[C@H](C)CC[C@H]5C5(C=O)CC3C=C(C(C)C)C45C(=O)O)O[C@H](C)[C@H]2O1` (single isomer, unassigned), the MIC in experiment [1] came out at 0.5 µg/mL (≈ 0.991 µM); in experiment [2], 62 µg/mL (≈ 123 µM); in experiment [3], 16 µg/mL (≈ 31.7 µM); in experiment [4] it was 1 µg/mL (≈ 1.98 µM); in experiment [5], 0.03 µg/mL (≈ 0.0595 µM); in experiment [6], 0.5 µg/mL (≈ 0.991 µM).

Consider `CC(C)C1=CC2CC3(C=O)[C@@H]4CC[C@@H](C)[C@H]4CC2(CO[C@H]2C[C@@H]4OC(C)(C)O[C@@H]4[C@@H](C)O2)C13C(=O)O` (stereo partly specified), for which the MIC in experiment [1] is 0.004 µg/mL (≈ 0.00796 µM); in experiment [2], 31 µg/mL (≈ 61.7 µM); in experiment [7] it was 0.008 µg/mL (≈ 0.0159 µM); in experiment [3] it was 8 µg/mL (≈ 15.9 µM); in experiment [4] it was 0.12 µg/mL (≈ 0.239 µM); in experiment [5], under 0.001 µg/mL. In experiment [6], this molecule displayed a minimum inhibitory concentration (MIC) of 0.004 µg/mL (≈ 0.00796 µM).

In the case of `CC(C)C1=CC2CC3(C=O)[C@@H]4CC[C@@H](C)[C@H]4CC2(CO[C@@H]2O[C@H](C)[C@H]4OC(C)(C)OC4[C@@H]2O)C13C(=O)O` (single isomer, unassigned), the MIC is 0.12 µg/mL (≈ 0.231 µM) in experiment [1]; 31 µg/mL (≈ 59.8 µM) in experiment [2]; 0.5 µg/mL (≈ 0.964 µM) in experiment [7]; 125 µg/mL (≈ 241 µM) in experiment [3]; 1 µg/mL (≈ 1.93 µM) in experiment [4]; 0.12 µg/mL (≈ 0.231 µM) in experiment [5]. In experiment [6], this molecule came in with an MIC of 0.06 µg/mL (≈ 0.116 µM).

As for `CC(C)C1=CC2CC3(C=O)[C@@H]4CC[C@@H](C)[C@H]4CC2(CO[C@H]2C[C@@H]4OCO[C@@H]4[C@@H](C)O2)C13C(=O)O` (stereo partly specified), the minimal inhibitory concentration (MIC) in experiment [1] was found to be 0.03 µg/mL (≈ 0.0632 µM); in experiment [2], 16 µg/mL (≈ 33.7 µM); in experiment [7] it was 0.015 µg/mL (≈ 0.0316 µM); in experiment [3], 0.5 µg/mL (≈ 1.05 µM); in experiment [4] it was 0.25 µg/mL (≈ 0.527 µM); in experiment [5], 0.015 µg/mL (≈ 0.0316 µM). The same molecule had an MIC in experiment [6] of 0.03 µg/mL (≈ 0.0632 µM).

Turning to `C/C=C/C=C(\C)C(=O)O[C@H]1[C@H](O)[C@H](OCC23C[C@@H]4[C@H](C)CC[C@H]4C4(C=O)CC2C=C(C(C)C)C34C(=O)O)O[C@H](C)[C@H]1OC` (stereo partly specified), the MIC in experiment [1] is 0.25 µg/mL (≈ 0.416 µM); in experiment [2], over 125 µg/mL; in experiment [7] it was 0.03 µg/mL (≈ 0.0499 µM); in experiment [3], 0.25 µg/mL (≈ 0.416 µM); in experiment [4] it was 0.06 µg/mL (≈ 0.0999 µM); in experiment [5] it was 0.015 µg/mL (≈ 0.025 µM). Moreover, in experiment [6], the minimal inhibitory concentration (MIC) stood at 0.03 µg/mL (≈ 0.0499 µM).

As for `CC(C)C1=CC2CC3(C=O)[C@@H]4CC[C@@H](C)[C@H]4CC2(CO[C@H]2C[C@@H]4OC(=O)O[C@@H]4[C@@H](C)O2)C13C(=O)O` (stereo partly specified), the MIC in experiment [1] amounted to 2 µg/mL (≈ 4.09 µM); in experiment [2] it was 8 µg/mL (≈ 16.4 µM); in experiment [7], 4 µg/mL (≈ 8.19 µM); in experiment [3], 16 µg/mL (≈ 32.7 µM); in experiment [4], 2 µg/mL (≈ 4.09 µM); in experiment [5] it was 1 µg/mL (≈ 2.05 µM). Further, in experiment [6], it took 1 µg/mL (≈ 2.05 µM) to inhibit growth (MIC).

In the case of `CC(C)C1=CC2CC3(C=O)[C@@H]4CC[C@@H](C)[C@H]4CC2(CO[C@H]2C[C@@H]4OC(=S)O[C@@H]4[C@@H](C)O2)C13C(=O)O` (stereo partly specified), the minimum inhibitory concentration (MIC) amounted to 2 µg/mL (≈ 3.96 µM) in experiment [1]; 16 µg/mL (≈ 31.7 µM) in experiment [2]; 8 µg/mL (≈ 15.9 µM) in experiment [7]; 8 µg/mL (≈ 15.9 µM) in experiment [3]; 125 µg/mL (≈ 248 µM) in experiment [4]; 2 µg/mL (≈ 3.96 µM) in experiment [5]. Besides, the minimal inhibitory concentration (MIC) in experiment [6] came to 1 µg/mL (≈ 1.98 µM).

Consider `CC(C)C1=CC2CC3(C=O)[C@@H]4CC[C@@H](C)[C@H]4CC2(CO[C@H]2C[C@@H]4OC(C)(C)CO[C@@H]4[C@@H](C)O2)C13C(=O)O` (stereo partly specified), for which the MIC is 0.25 µg/mL (≈ 0.484 µM) in experiment [1]; over 125 µg/mL in experiment [2]; 0.12 µg/mL (≈ 0.232 µM) in experiment [7]; 31 µg/mL (≈ 60 µM) in experiment [3]; 1 µg/mL (≈ 1.94 µM) in experiment [4]; 0.015 µg/mL (≈ 0.029 µM) in experiment [5]. This molecule displayed an MIC in experiment [6] of 0.03 µg/mL (≈ 0.0581 µM).
